Reference: article PMC8424217 (The Journal of Biological Chemistry, 2021)
Peptide text beside a SMILES is read from it. * marks the point of attachment. Palmitoyl = CCCCCCCCCCCCCCCC(=O)*

Experiment: Circular dichroism
Type: physicochemical
Conditions: peptide 0.2 mg mL^−1, 20 °C
Protocol: Circular dichroism (CD) analyses were performed in a JASCO J-815 (JAPAN Spectroscopy & Chromatography Technology) spectropolarimeter coupled to a temperature controller Peltier. Samples were dissolved at 0.2 mg mL^−1 in either water, 0.5 mg mL^−1 DPC (dodecylphophocholine), 0.1 mg mL^−1 SDS (sodium dodecyl sulfate), or TFE (2,2,2-trifluoroethanol) aqueous solutions at concentrations of 20%, 50%, and 80%. The CD spectra were recorded in the measured range of 200–250 nm using a scan speed of 50 nm min^−1, and the baseline was corrected by subtraction of the solvent spectrum. The temperature was set to 20 °C.

CCCCCCCCCCCCCCCC(=O)N[C@@H](Cc1c[nH]c2ccccc12)C(=O)N[C@@H](CC(C)C)C(=O)N[C@@H](CO)C(=O)N[C@@H](CCC(N)=O)C(=O)N[C@@H](CCCNC(=N)N)C(=O)N[C@@H](C)C(=O)N[C@@H](CO)C(=O)N[C@@H](Cc1ccccc1)C(=O)N[C@@H](CCCCN)C(=O)N[C@@H](CCCNC(=N)N)C(=O)N[C@@H](C)C(=O)N[C@@H](CCCNC(=N)N)C(=O)N[C@@H](CCCNC(=N)N)C(N)=O [[Trp^1, Leu^2]hUT-Pep3] (Palmitoyl-WLSQRASFKRARR-NH2)
CD conformation in SDS (0.1 mg mL^−1 SDS): β-sheet conformation (lower peak at 216 nm)
CD conformation in DPC (0.5 mg mL^−1 DPC): less structured α-helix conformation
CD conformation in TFE (TFE 80%): fold as an α-helix (dark green, TFE 80%, lower peaks at 205 and 216 nm)
CD conformation in water (water): nonstructured shape (random coil)
